ChEMBL document CHEMBL3751755, “Developing steroidal aromatase inhibitors-an effective armament to win the battle against breast cancer” (Eur J Med Chem, 2015)

What was measured:
Aromatase [1] = molecular target: T1, Aromatase (Homo sapiens, UniProt P11511); experiment: Inhibition of human aromatase extracted from placental microsomes using [1beta-3H]androstenedione as substrate after 30 mins
T1 sequence (P11511 whole entry): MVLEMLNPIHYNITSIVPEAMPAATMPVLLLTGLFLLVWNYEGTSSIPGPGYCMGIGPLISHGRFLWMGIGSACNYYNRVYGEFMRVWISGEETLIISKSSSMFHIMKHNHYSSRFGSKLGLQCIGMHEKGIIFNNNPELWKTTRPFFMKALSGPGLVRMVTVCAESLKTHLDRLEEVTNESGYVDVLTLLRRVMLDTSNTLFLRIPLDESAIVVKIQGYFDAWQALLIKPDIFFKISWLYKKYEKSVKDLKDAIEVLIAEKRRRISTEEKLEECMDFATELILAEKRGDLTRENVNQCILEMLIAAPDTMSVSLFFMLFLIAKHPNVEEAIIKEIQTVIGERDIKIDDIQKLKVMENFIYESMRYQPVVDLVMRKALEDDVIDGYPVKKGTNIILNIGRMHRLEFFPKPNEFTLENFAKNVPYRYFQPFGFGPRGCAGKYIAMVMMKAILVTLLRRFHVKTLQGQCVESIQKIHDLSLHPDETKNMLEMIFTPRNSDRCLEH

Aromatase [2] = molecular target: T1, Aromatase; experiment: Inhibition of human aromatase extracted from placental microsomes using [1beta-3H]androstenedione as substrate at 10 to 500 nM after 30 mins; conditions: 0.5 h
Aromatase [3] = molecular target: T2, Aromatase (Rattus norvegicus, UniProt P22443); experiment: Inhibition of rat aromatase extracted from PMSG-primed ovarian fraction using 4-[14C]androstenedione/androstenedione as substrate assessed as estrogen formation after 30 mins in NADPH-generating system; conditions: 0.5 h
T2 sequence (P22443 whole entry): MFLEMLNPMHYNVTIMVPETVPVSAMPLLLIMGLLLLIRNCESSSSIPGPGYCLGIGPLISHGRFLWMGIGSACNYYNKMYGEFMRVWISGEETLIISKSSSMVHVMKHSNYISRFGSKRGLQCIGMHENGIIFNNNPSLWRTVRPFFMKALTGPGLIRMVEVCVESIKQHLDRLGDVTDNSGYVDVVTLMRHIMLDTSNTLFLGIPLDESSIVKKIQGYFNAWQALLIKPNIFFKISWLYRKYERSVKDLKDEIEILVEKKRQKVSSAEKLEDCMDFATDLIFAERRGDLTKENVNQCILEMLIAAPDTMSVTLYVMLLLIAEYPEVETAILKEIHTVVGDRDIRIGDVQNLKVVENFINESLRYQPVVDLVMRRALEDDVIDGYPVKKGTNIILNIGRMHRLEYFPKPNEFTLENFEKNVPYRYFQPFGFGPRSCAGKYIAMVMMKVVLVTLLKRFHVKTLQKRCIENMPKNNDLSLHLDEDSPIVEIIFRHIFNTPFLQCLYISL

Aromatase [4] = molecular target: T1, Aromatase; experiment: Inhibition of human aromatase extracted from placental microsomes using 4-[14C]androstenedione/androstenedione as substrate assessed as estrogen formation after 30 mins in NADPH-generating system; conditions: 0.5 h
Aromatase [5] = molecular target: T1, Aromatase; experiment: Inhibition of human aromatase extracted from placental microsomes
Aromatase [6] = molecular target: T1, Aromatase; experiment: Inhibition of aromatase (unknown origin) at 50 uM
Aromatase [7] = molecular target: T1, Aromatase; experiment: Competitive inhibition of human aromatase extracted from placental microsomes by double reciprocal plot analysis in presence of 4-androstene-3,17-dione; conditions: read-out: Ki(app)
[8] = Antitumor activity against NMU-induced mammary tumor in rat; format: functional
Aromatase [9] = molecular target: T1, Aromatase
Aromatase [10] = molecular target: T1, Aromatase; experiment: Competitive inhibition of human aromatase extracted from placental microsomes after 10 mins by Lineweaver- Burk plots analysis in presence of [1beta-3H]androstenedione
Aromatase [11] = molecular target: T2, Aromatase; experiment: Inhibition of aromatase in denucleated ovarian fraction extracted from PMSG pretreated Wistar rat by using testosterone as substrate at 1 uM
Aromatase [12] = molecular target: T1, Aromatase; experiment: Inhibition of human aromatase extracted from placental microsomes using [1-3H]androstenedione as substrate
Aromatase [13] = molecular target: T2, Aromatase; experiment: Inhibition of rat aromatase extracted from ovarian fraction using testosterone as substrate
Aromatase [14] = molecular target: T1, Aromatase; experiment: Inhibition of human aromatase extracted from placental microsomes using [1beta-3H]androstenedione as substrate after 20 mins
Aromatase [15] = molecular target: T1, Aromatase; remark: listed apart in the source
Aromatase [16] = molecular target: T1, Aromatase; remark: listed apart in the source
Aromatase [17] = molecular target: T1, Aromatase; experiment: Inhibition of human aromatase extracted from placental microsomes using [1beta,2beta-3H]androstenedione as substrate
Aromatase [18] = molecular target: T1, Aromatase; experiment: Inhibition of human aromatase extracted from placental microsomes using [1beta,2beta-3H]androstenedione as substrate after 10 mins
Aromatase [19] = molecular target: T1, Aromatase; experiment: Inhibition of human aromatase extracted from placental microsomes using [1-3H]androstenedione as substrate at […]
Aromatase [20] = molecular target: T2, Aromatase; experiment: Inhibition of aromatase in denucleated ovarian fraction extracted from PMSG pretreated Wistar rat by using testosterone as substrate after 15 mins by radio immuno assay

## C[C@]12CC[C@H]3[C@@H](Cc4noc5c4[C@]3(C)CCC5=O)[C@@H]1CC[C@@H]2O
Aromatase [1]
  IC50: 18.6 µM
Aromatase [2]
  inhibition (INH): 50%

## C[C@]12C=CC(=O)C(O)=C1CC[C@@H]1[C@@H]2CC[C@]2(C)C(=O)CC[C@@H]12
Aromatase [3]
  inhibition (INH): 30%
Aromatase [4]
  inhibition (INH): 30%

## C[C@]12CCC(=O)C(O)=C1C=C[C@@H]1[C@@H]2CC[C@]2(C)C(=O)CC[C@@H]12
Aromatase [3]
  inhibition (INH): 30%
Aromatase [4]
  inhibition (INH): 30%

## C[C@]12CC[C@H]3[C@@H](Cc4nn(Cc5ccccc5)c5c4[C@]3(C)CCC5=O)[C@@H]1CC[C@@H]2O
Aromatase [5]
  IC50: 0.245 µM

## C[C@]12C=CC(=O)C(O)=C1C=C[C@@H]1[C@@H]2CC[C@]2(C)C(=O)CC[C@@H]12
Aromatase [3]
  inhibition (INH): 30%
Aromatase [4]
  inhibition (INH): 30%

## C[C@]12CCC(=O)C(O)=C1C=C[C@@H]1[C@@H]2CC[C@]2(C)/C(=C/c3ccccn3)CC[C@@H]12
Aromatase [6]
  inhibition at 50 µM: 92%

## C[C@]12C=CC(=O)C=C1C[C@@H](Sc1ccc3ccccc3c1)[C@@H]1[C@@H]2CC[C@]2(C)C(=O)CC[C@@H]12
Aromatase [7]
  Ki: 0.012 µM

## C[C@]12CCC(=O)C(F)=C1CC[C@@H]1[C@@H]2CC[C@]2(C)C(=O)CC[C@@H]12
[8]
  Activity: 44%
Aromatase [9]
  Ki: 0.015 µM

## C[C@]12C=CC(=O)C(Sc3ccccc3)=C1C=C[C@@H]1[C@@H]2CC[C@]2(C)C(=O)CC[C@@H]12
Aromatase [10]
  Ki: 0.0098 µM

## C[C@]12CCC(=O)C=C1C(=O)C[C@@H]1[C@@H]2CC[C@]2(C)/C(=C/c3ccccn3)CC[C@@H]12
Aromatase [6]
  inhibition at 50 µM: 108%

## C[C@]12C=CC(=O)C(Sc3ccccc3)=C1CC[C@@H]1[C@@H]2CC[C@]2(C)C(=O)CC[C@@H]12
Aromatase [10]
  Ki: 0.0098 µM

## C[C@]12C=CC(=O)C=C1C[C@@H](Sc1cccc3ccccc13)[C@@H]1[C@@H]2CC[C@]2(C)C(=O)CC[C@@H]12
Aromatase [7]
  Ki: 0.012 µM

## C[C@@H]1OC(=O)C[C@H]2[C@@H]3CCC4=C(O)C(=O)CC[C@]4(C)[C@H]3CC[C@]12C
Aromatase [11]
  inhibition at 1 µM: 23.3%

## C=C1C=C2CC[C@@H]3[C@H](CC[C@]4(C)C(=O)CC[C@@H]34)[C@@]2(C=O)CC1
Aromatase [12]
  inhibition (INH): 50%

## C[C@]12C=CC(=O)C=C1C=C[C@@H]1[C@@H]2CC[C@@]2(C)[C@H]1CC[C@@]2(O)Cc1ccccn1
Aromatase [13]
  inhibition (INH): 51.5%

## C[C@]12CCC(=O)C(c3ccc(OS(N)(=O)=O)cc3)=C1CC[C@@H]1[C@@H]2CC[C@]2(C)C(=O)CC[C@@H]12
Aromatase [14]
  IC50: 0.99 µM
Aromatase [15]
  Ki: 0.097 µM

## C[C@]12C=CC(=O)C=C1C=C(CCc1ccccc1)[C@@H]1[C@@H]2CC[C@]2(C)C(=O)CC[C@@H]12
Aromatase [16]
  Ki: 0.172 µM

## CSCC[C@]12CCC(=O)C=C1CC[C@@H]1C2=CC[C@]2(C)C(=O)CC[C@@H]12
Aromatase [17]
  IC50: 0.012 µM

## C[C@]12CC[C@H]3O[C@H]3[C@@H]1CC[C@@H]1[C@@H]2CC[C@]2(C)C(=O)CC[C@@H]12
Aromatase [14]
  IC50: 0.18 µM

## C[C@]12CCC(=O)C(SCF)=C1CC[C@@H]1[C@@H]2CC[C@]2(C)C(=O)CC[C@@H]12
Aromatase [18]
  IC50: 0.8 µM

## C[C@]12CCC(=O)C=C1C[C@@H](Sc1ccc(Cl)cc1)[C@@H]1[C@@H]2CC[C@]2(C)C(=O)CC[C@@H]12
Aromatase [19]
  inhibition at […]: 45%

## C[C@@H]1OC(=O)C[C@H]2[C@@H]3CCC4=CC(=O)CC[C@]4(C)[C@H]3CC[C@]12C
Aromatase [20]
  IC50: 0.28 µM

## C[C@]12CC[C@H]3[C@@H](CCC4=C(F)C(=O)CC[C@@H]43)[C@@H]1CCC2=O
Aromatase [9]
  Ki: 0.09 µM
